In BindingDB's records for doi:10.1021/acschembio.6b00555 (University of Nebraska-Lincoln, 2016):
pKd: −log10 of the molar value.

Key:
Assay in all cases: Fluorescence Polarization Assay
Details in all cases: pH 7.35
[1] = biological target: T1, Tyrosine-protein kinase transforming protein Src [144-247,E177R,S178L,E179Q,T180R,T181V,C186A,K201L] (Rous sarcoma virus subgroup B (strain Schmidt-Ruppin), UniProt P63185, C186A/E177R/E179Q/K201L/S178L/T180R/T181V)
T1 construct: 144-247
Description: (§1) Three fluorescein-labeled peptide probes, FITC-sulfopeptide, FITC-phosphopeptide, and FITC-tyrosinepeptide (FITC, fluorescein isothiocyanate), were used. Individual peptide probes were dissolved in assay buffer containing potassium phosphate (20 mM, pH 7.35), NaCl (100 mM), DTT (2 mM), and bovine gamma globulin (0.1%). Aliquots of the peptide probe solution were distributed to 96-well fluorescence plate to reach a final concentration of 10 nM. After the addition of indicated amounts of SH2 domain protein, the assay solutions were mixed and incubated at RT in the dark for 25 min. Fluorescence polarization experimentswere performed on a Synergy H1 plate reader (BioTek Instruments, Inc.) equipped with standard filter cube (λEx = 485 nm, BP = 20 nm; λEm = 528 nm, BP = 20 nm). A standard sample layout in a 96-well plate was designed so that a single plate contains all the samples for one SH2 domain variant. Triplicate samples at each protein concentration were arrayed in the plat

[2] = biological target: T2, Tyrosine-protein kinase transforming protein Src [144-247,T181V,C186A,K201L] (Rous sarcoma virus subgroup B (strain Schmidt-Ruppin), UniProt P63185, C186A/K201L/T181V)
T2 construct: 144-247
T2 sequence (P63185 144-247 T180V/C185A/K200L): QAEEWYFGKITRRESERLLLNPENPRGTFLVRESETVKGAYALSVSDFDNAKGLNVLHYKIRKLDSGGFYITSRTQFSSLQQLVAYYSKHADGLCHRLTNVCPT
Description: as §1

[3] = biological target: T3, Tyrosine-protein kinase transforming protein Src [144-247,E177Q,S178L,E179A,T180R,T181V,C186A,K201L] (Rous sarcoma virus subgroup B (strain Schmidt-Ruppin), UniProt P63185, C186A/E177Q/E179A/K201L/S178L/T180R/T181V)
T3 construct: 144-247
T3 sequence (P63185 144-247 E176Q/S177L/E178A/T179R/T180V/C185A/K200L): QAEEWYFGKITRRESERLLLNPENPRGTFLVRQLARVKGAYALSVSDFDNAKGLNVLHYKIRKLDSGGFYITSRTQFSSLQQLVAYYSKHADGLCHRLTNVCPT
Description: as §1

[4] = biological target: T4, Tyrosine-protein kinase transforming protein Src [144-247] (Rous sarcoma virus subgroup B (strain Schmidt-Ruppin), UniProt P00524)
T4 construct: 144-247
T4 sequence (P00524 144-247): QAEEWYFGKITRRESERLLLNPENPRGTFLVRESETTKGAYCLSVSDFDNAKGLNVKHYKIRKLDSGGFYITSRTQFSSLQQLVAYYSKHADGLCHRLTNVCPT
Description: as §1

T1 sequence (P63185 144-247 E176R/S177L/E178Q/T179R/T180V/C185A/K200L): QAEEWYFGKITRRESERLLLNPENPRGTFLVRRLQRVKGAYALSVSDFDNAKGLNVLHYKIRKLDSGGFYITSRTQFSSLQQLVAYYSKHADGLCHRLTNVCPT

| Compound | pKd [1] | pKd [2] | pKd [3] | pKd [4] |
| --- | --- | --- | --- | --- |
| N[C@@H](Cc1ccc(OP(=O)(O)O)cc1)C(=O)O [Phosphotyrosine (pTyr)] | 8.60 | 8.31 | 8.11 | 7.21 |
| N[C@@H](Cc1ccc(OS(=O)(=O)O)cc1)C(=O)O [Sulfotyrosine (sTyr)] | 8.25 | 6.46 | 7.98 | 5.02 |
